Laboratory results taken from ChEMBL document CHEMBL1141312, “Induction of apoptosis by diterpenes from the soft coral Xenia elongata” (2007).
Activity calls are given as the source filed them. The rule behind the calls is not given here.

How the values were obtained:
W2 = assay: (§1) Induction of apoptosis in mouse W2 cells assessed as cell death after 48 hrs by MTT assay; format: functional
[1] = as §1; format: functional
[2] = Induction of apoptosis in apoptosis-resistant mouse D3 cells assessed as cell growth after 48 hrs by MTT assay; format: functional
D3 [3] = assay: Induction of apoptosis in mouse apoptosis-resistant D3 cells assessed as cell growth at 12 uM after 48 hrs by MTT assay; format: functional, cell-based
D3 [4] = assay: Induction of apoptosis in mouse apoptosis-resistant D3 cells assessed as cell growth at 12 uM after 72 hrs by MTT assay; format: functional, cell-based

Compound	Activity (W2)	Activity [1] [%]	Activity [2] [%]	Activity (D3 [3])	Activity (D3 [4])
C=C1CC/C=C(\C)CC[C@H](/C(=C\CC=C(C)C)COC(C)=O)[C@H]1C(=O)OC	Active				
C=C1CC/C=C(\C)CC[C@H](/C(=C\C=C\C(C)(C)O)COC(C)=O)[C@H]1C(OC)OC	Active				
C=C1CC/C=C(\C)CC[C@@H]2C(C(CC3OC3(C)C)OC(C)=O)=CO[C@H](OC(C)=O)[C@@H]12 (some centres not stated)		50	61	Active	Active
C=C1CC/C=C(\C)CC[C@H](/C(=C/C=C/C(C)(C)O)COC(C)=O)[C@H]1C(=O)OC	Active				
